Active and inactive are the calls of the source.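 How the source made its calls: active means dose dependent inhibition of hERG heart potassium channel current within the tested dose range; inactive means the rest.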

The IC50 is the point on the concentration scale where inhibition reaches its midpoint.

For one experiment, the target named is Inward rectifier potassium channel 2 (Mus musculus) (UniProt P35561). Put plainly: hERG current block potency – CHO cells, automated electrophysiology, selectivity assay for Kir2.1 inhibitor project, SAR follow-up (AID 504555). As to conditions: automated patch clamp, tail current, at 30 µM (top of the series).
Chain of Inward rectifier potassium channel 2 (Mus musculus) (P35561 whole entry, looked up): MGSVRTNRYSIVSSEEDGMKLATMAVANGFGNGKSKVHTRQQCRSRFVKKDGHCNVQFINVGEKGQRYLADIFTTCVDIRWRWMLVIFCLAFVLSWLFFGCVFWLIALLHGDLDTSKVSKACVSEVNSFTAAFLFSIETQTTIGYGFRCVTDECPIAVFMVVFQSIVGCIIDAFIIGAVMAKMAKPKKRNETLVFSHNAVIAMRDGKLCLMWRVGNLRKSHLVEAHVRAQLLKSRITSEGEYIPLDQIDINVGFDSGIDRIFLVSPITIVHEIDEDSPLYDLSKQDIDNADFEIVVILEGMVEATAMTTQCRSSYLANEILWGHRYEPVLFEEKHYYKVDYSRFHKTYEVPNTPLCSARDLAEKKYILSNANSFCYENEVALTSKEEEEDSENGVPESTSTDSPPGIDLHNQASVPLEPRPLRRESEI
Consider `O=S(=O)(c1ccc(F)cc1)N1CCCc2ccccc21`, for which the “current change, negative = inhibition” value was “inactive”.

For the next experiment, the target named is Voltage-gated inwardly rectifying potassium channel KCNH2 (Homo sapiens) (UniProt Q12809). The experiment is described as above. As to conditions: automated patch clamp, tail current.
Chain of Voltage-gated inwardly rectifying potassium channel KCNH2 (Homo sapiens) (Q12809 whole entry, looked up): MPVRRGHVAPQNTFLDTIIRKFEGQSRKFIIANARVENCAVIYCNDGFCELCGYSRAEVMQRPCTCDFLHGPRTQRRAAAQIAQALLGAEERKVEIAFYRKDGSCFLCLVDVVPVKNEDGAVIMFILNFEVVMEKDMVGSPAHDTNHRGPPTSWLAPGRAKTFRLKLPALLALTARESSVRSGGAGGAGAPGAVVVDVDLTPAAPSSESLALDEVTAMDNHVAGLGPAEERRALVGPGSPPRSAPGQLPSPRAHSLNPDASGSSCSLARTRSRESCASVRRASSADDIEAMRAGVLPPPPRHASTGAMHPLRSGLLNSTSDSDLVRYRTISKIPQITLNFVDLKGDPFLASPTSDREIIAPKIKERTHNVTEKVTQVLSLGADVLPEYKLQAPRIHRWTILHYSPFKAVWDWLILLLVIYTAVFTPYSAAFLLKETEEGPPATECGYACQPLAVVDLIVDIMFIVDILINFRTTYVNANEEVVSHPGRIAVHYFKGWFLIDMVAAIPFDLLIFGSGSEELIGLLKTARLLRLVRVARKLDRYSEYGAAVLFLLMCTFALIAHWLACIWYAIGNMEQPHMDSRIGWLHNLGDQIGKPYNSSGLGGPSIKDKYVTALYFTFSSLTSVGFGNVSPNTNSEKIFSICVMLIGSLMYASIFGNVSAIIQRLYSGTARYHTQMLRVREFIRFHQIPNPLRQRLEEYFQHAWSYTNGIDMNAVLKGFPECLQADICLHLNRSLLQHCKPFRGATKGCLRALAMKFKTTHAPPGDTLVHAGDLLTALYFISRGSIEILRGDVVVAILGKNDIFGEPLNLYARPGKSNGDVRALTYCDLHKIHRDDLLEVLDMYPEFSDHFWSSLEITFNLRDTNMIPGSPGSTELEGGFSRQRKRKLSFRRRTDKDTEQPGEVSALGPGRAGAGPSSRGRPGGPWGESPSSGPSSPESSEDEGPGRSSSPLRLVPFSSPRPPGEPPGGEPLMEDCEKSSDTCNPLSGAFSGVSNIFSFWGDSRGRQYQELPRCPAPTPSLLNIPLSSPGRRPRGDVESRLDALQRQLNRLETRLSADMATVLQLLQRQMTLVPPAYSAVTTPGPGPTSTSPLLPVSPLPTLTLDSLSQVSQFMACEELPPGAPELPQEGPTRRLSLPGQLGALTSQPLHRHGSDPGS
Turning to `C[C@H](NS(=O)(=O)c1ccc(Br)cc1)c1ccccc1`, the IC50 was 17.6 µM.
Turning to `C[C@@H](NS(=O)(=O)c1ccc(Cl)cc1)c1ccccc1`, the IC50 was 19.5 µM.
On the same count and under the same terms, the result for `Cc1ccc(C)c(OCCCNCc2ccccc2)c1` reads 19.3 µM; that for `Cc1ccc(Nc2cc(C)nc3c(C)cccc23)cc1`, 2.33 µM; that for `C[C@@H](NS(=O)(=O)c1cccc(Br)c1)c1ccccc1`, 17.6 µM.
Same read-out and setting: the result for `Cc1noc(C)c1COC(=O)CCN1c2ccccc2Sc2ccccc21` reads 29.1 µM; that for `c1ccc(COc2ccc(OCCCNC3CCCC3)cc2)cc1`, 2.19 µM.
Still for that read-out and setting: next, `Cc1ccc2nc(NCc3ccccc3)[nH]c2c1`: 13 µM; `c1ccc(CNc2c3ccccc3nc3ccccc23)cc1`: 0.433 µM; `Cc1ccc(S(=O)(=O)N[C@@H](C)c2ccccc2)cc1`: 27.6 µM.
Regarding `CC(O)CNCCCOc1cccc(Oc2ccccc2)c1` (centres undefined), the IC50 is 6.96 µM.
Same read-out and setting: the result for `Cc1ccc2nc(N3CCN(CCO)CC3)nc(-c3ccccc3)c2c1` reads 2.9 µM.
The same measure, in the same setting: next, `C[C@H](NS(=O)(=O)c1cccc(Br)c1)c1ccccc1`: 10.2 µM.

These data come from PubChem BioAssay AID504555 (Johns Hopkins Ion Channel Center, 2011).
